Counter-ions that a name gives are not always drawn.
Assays:
CYP2D6*1 [1] = molecular target: T1, CYP2D6*1 (Homo sapiens, UniProt P10635); experiment: Inhibition of tramadol O-demethylation, CYP2D6*1 Bactosomes
CYP2D6*2 [2] = molecular target: T2, CYP2D6*2 (Homo sapiens, UniProt P10635, R296C/S486T); experiment: Inhibition of tramadol O-demethylation, CYP2D6*2 Bactosomes; settings: for Ki Ratio CYP2D6*2/CYP2D6*1: Ki of variant allele / Ki of CYP2D6*1
CYP2D6*10 [3] = molecular target: T3, CYP2D6*10 (Homo sapiens, UniProt P10635, P34S/S486T); experiment: Inhibition of tramadol O-demethylation, CYP2D6*10 Bactosomes; settings: for Ki Ratio CYP2D6*10/CYP2D6*1: Ki of variant allele / Ki of CYP2D6*1
CYP2D6*17 [4] = molecular target: T4, CYP2D6*17 (Homo sapiens, UniProt P10635, R296C/S486T/T107I); experiment: Inhibition of tramadol O-demethylation, CYP2D6*17 Bactosomes; settings: for Ki Ratio CYP2D6*17/CYP2D6*1: Ki of variant allele / Ki of CYP2D6*1
CYP2D6*10 [5] = settings: microsomes prepared from insect cells; cited from earlier work
CYP2D6*17 [6] = settings: tramadol as substrate; cited from earlier work
CYP2D6*1 [7] = molecular target: T1, CYP2D6*1
CYP2D6*2 [8] = molecular target: T2, CYP2D6*2
CYP2D6*10 [9] = molecular target: T3, CYP2D6*10
CYP2D6*17 [10] = molecular target: T4, CYP2D6*17

CC(NC(C)(C)C)C(=O)c1cccc(Cl)c1 (stereo not drawn) [Bupropion, bupropion]
Ki (CYP2D6*1 [1]): 11.9 µM
Ki (CYP2D6*2 [2]): 11.5 µM
Ki Ratio CYP2D6*2/CYP2D6*1 (CYP2D6*2 [2]): 0.96
Ki (CYP2D6*10 [3]): 55.9 µM
Ki Ratio CYP2D6*10/CYP2D6*1 (CYP2D6*10 [3]): 4.69
Ki (CYP2D6*17 [4]): 20.2 µM
Ki Ratio CYP2D6*17/CYP2D6*1 (CYP2D6*17 [4]): 1.70

CN(C/C=C/C#CC(C)(C)C)Cc1cccc2ccccc12 [Terbinafine, terbinafine]
Ki (CYP2D6*1 [1]): 0.0173 µM
Ki (CYP2D6*2 [2]): 0.067 µM
Ki Ratio CYP2D6*2/CYP2D6*1 (CYP2D6*2 [2]): 3.87
Ki (CYP2D6*10 [3]): 0.235 µM
Ki Ratio CYP2D6*10/CYP2D6*1 (CYP2D6*10 [3]): 13.61
Ki (CYP2D6*17 [4]): 0.844 µM
Ki Ratio CYP2D6*17/CYP2D6*1 (CYP2D6*17 [4]): 48.77

COc1cccc(C2(O)CCCCC2CN(C)C)c1 (stereo not drawn) [Tramadol, tramadol hydrochloride]
intrinsic clearance value, % of that for CYP2D6*1 (CYP2D6*10 [5]): 6.9%
intrinsic clearance relative to CYP2D6*1 (CYP2D6*17 [6]): 36%
CLint (CYP2D6*1 [7]; CYP2D6*1, CLint = Vmax/Km): 0.4 μL/min/pmol P450
Vmax (CYP2D6*1 [7]; CYP2D6*1, O-desmethyltramadol formation): 22.6 pmol/min/pmol P450
Km at 30 min (CYP2D6*1 [7]; human, recombinant CYP2D6*1 Bactosomes, pH 7.4): 59.6 µM
intrinsic clearance compared to CYP2D6*1 (CYP2D6*2 [8]; CYP2D6*2, relative to CYP2D6*1): 180%
CLint ratio CYP2D6*X/CYP2D6*1 (CYP2D6*2 [8]; CYP2D6*2/CYP2D6*1): 1.8
CLint (CYP2D6*2 [8]; CYP2D6*2, CLint = Vmax/Km): 0.7 μL/min/pmol P450
Vmax (CYP2D6*2 [8]; CYP2D6*2, O-desmethyltramadol formation): 39.7 pmol/min/pmol P450
Km at 30 min (CYP2D6*2 [8]; human, recombinant CYP2D6*2 Bactosomes, pH 7.4): 59.4 µM
intrinsic clearance compared to CYP2D6*1 (CYP2D6*10 [9]; CYP2D6*10, relative to CYP2D6*1): 20%
CLint ratio CYP2D6*X/CYP2D6*1 (CYP2D6*10 [9]; CYP2D6*10/CYP2D6*1): 0.2
CLint (CYP2D6*10 [9]; CYP2D6*10, CLint = Vmax/Km): 0.1 μL/min/pmol P450
Vmax (CYP2D6*10 [9]; CYP2D6*10, O-desmethyltramadol formation): 13.6 pmol/min/pmol P450
Km at 30 min (CYP2D6*10 [9]; human, recombinant CYP2D6*10 Bactosomes, pH 7.4): 204 µM
intrinsic clearance compared to CYP2D6*1 (CYP2D6*17 [10]; CYP2D6*17, relative to CYP2D6*1): 10%
CLint ratio CYP2D6*X/CYP2D6*1 (CYP2D6*17 [10]; CYP2D6*17/CYP2D6*1): 0.1
Vmax (CYP2D6*17 [10]; CYP2D6*17, O-desmethyltramadol formation): 5.6 pmol/min/pmol P450
Km at 30 min (CYP2D6*17 [10]; human, recombinant CYP2D6*17 Bactosomes, pH 7.4): 149 µM

Reference: article PMC11772017 (Clinical and Translational Science, 2025)
